The conditions of data set [1]: Table 1; K=[ML]/[M][L]; cited from earlier work.
The subject of data set [2] is Aβ1-40 or Aβ1-42 SDS-resistant polymers. The experiment in a line: Dissolution of in vitro Cu^2+-induced SDS-resistant Aβ polymers. The following applies: polymers generated at pH 7.4. Type of data set: biochemical, human.
The conditions of data set [3]: Table 1; K=[ML]/[M][L]; cited from earlier work. This is another data set of the same source.
For data set [4] the following is noted: Table 1; K=[ML]/[M][L]; cited from earlier work. This is another data set of the same source.
For data set [5] the following is noted: Table 1; K=[ML]/[M][L]; cited from earlier work. The source holds these as a separate data set.
For data set [6] the following is noted: Table 1; K=[ML]/[M][L]; cited from earlier work. This is another data set of the same source.
The conditions of data set [7]: Table 1; K=[ML]/[M][L]; cited from earlier work. The source holds these as a separate data set.
For data set [8] the following is noted: Table 1; K=[ML]/[M][L]; cited from earlier work. The source holds these as a separate data set.
Data set [9] is described as follows: Clioquinol in humans: expected plasma levels and side effect. It is filed as in vivo.
For data set [10], the system named is Aβ deposits of AD-affected brain. The experiment in a line: Extraction (solubilization) of Aβ from post-mortem AD brain tissue homogenates, western blot densitometry. It is filed as biochemical, human.
The conditions of data set [11]: in vivo, cited from earlier work.
The conditions of data set [12]: oral dose of 200 mg/kg, rats; cited from earlier work.
Data set [13] has as its target T1, Aβ1-40 aggregates (Homo sapiens, UniProt P05067).
T1 construct: formed in vitro by the action of Cu^2+ or Zn^2+ upon Aβ1-40 was examined; purchased W. M. Keck Foundation Biotechnology Resource Laboratory (Yale University); host or cells: chemical synthesis
Description: Resolubilization of in vitro metal- or pH-induced Aβ aggregates on filter. Type of data set: biochemical. The note with it: chelator 2 μM in TBS.
Description: Aggregates were transferred to a 0.2 μ nylon membrane by filtration. […] The membrane was fixed, probed with the anti-Aβ monoclonal antibody 6E10, and developed for exposure to ECL-film. […] Values are expressed as a percentage of Aβ signal after washing with TBS alone.
Aβ (10 ng/well in buffered saline) aggregation was induced by addition of metals (5 μM) or acidic conditions (pH 5.5). Aggregates were transferred to a 0.2 μ nylon membrane by filtration. […] The membrane was then fixed, probed with anti-Aβ monoclonal antibody 6E10 and developed for exposure to ECL-film. […] Values are expressed as a % of Aβ signal remaining on the filter after washing with TBS alone.

For data set [14] the following is noted: oral dose of 500 mg/kg, monkeys; cited from earlier work.
The conditions of data set [15]: cited from earlier work.
Data set [16] is described as follows: Dissolving clioquinol: n-decane / PBS partition. Type of data set: physicochemical. The protocol: Next, the phases were allowed to separate. The lower phase (PBS) was collected and filtered to remove the residue which had formed at the phase interface upon extraction with the organic solvent. The concentration of clioquinol in the PBS was determined to be 800 nanomolar. This number was arrived at based on two assumptions: […]

For data set [17] the following is noted: cited from earlier work. The source holds these as a separate data set.
The conditions of data set [18]: with PBS at 1:1 mixture; assumption; cited from earlier work.
For data set [19] the following is noted: sustained treatment, dose as low as 10 mg/kg/day; cited from earlier work.
For data set [20] the following is noted: oral dose of 200 mg/kg, dogs; cited from earlier work.
Data set [21] concerns brain-derived Aβ. The experiment in a line: Effect of added metals on solubility of brain-derived Aβ. It is filed as biochemical, human. The following applies: 2 mM in PBS.
Description: Aβ in the high speed supernatant was visualized as described above.
The homogenates were spun at 100,000× g for 30 min and the supernatant discarded. […] Aβ in the soluble fraction was visualized as described above.

“And” between values parts separate entries of the source, which are not always exact repeats. Equal values may be shown once. “Also recorded” adds a separate entry of the source. Read-outs that look alike come from different tables or passages of the source.

T1 sequence (P05067 672-711 limits assumed): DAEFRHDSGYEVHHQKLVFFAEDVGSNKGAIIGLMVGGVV

Turning to `O=C(O)CN(CCN(CC(=O)O)CC(=O)O)CC(=O)O` [EDTA, ethylenediaminetetra acetic acid], the “LogK, Fe” value in data set [1] is on record as 14.3. In addition, the “effect of chelators on amount of SDS-resistant polymers” value in data set [2] is “less effective in destabilizing the polymers”. Besides, the “LogK, Co” value in data set [3] is 16.5. Moreover, the “LogK, Al” value in data set [4] is on record as 16.5. In data set [5], the “LogK, Mg” value was 8.9. Moreover, the “LogK, Cu” value in data set [6] is listed as 18.8. For the same compound, the “LogK, Ca” value in [7] is 10.7. The “LogK, Zn” value in data set [8] was 16.5.
`Oc1c(I)cc(Cl)c2cccnc12` [clioquinol, 5-chloro-7-iodo-8-hydroxyquinoline]: in data set [9] (100 mg, three or four times a day), the peak plasma levels result is on record as “about 0.1 μM”. The expected plasma level in data set [9] (humans, within 30 minutes of ingesting 10 mg/kg body weight) stood at 0.5 µM. Further, in data set [10], the “% of total Aβ extracted” value was 1.85% and 4.5% and 3.4%; the “% of total Aβ extracted, + PBS” value is 0.11% and 2.7% and 1.1%; the “Aβ recovered in the soluble phase compared to PBS alone” value is “doubling the recovery of Aβ; also recorded: more than twice”; the “increase in solubilization of Aβ relative to PBS alone” value was found to be 2.5 fold. Also, in data set [11], the “brain / blood-brain barrier penetration” value is on record as “freely permeable into the brain”. In addition, the “brain / blood-brain barrier penetration” value in [11] (listed as Clioquinol) is listed as “crosses the blood brain barrier”. The plasma levels in [12] is 5 µM. Moreover, in data set [13], the “Cu^2+-induced Aβ precipitate resolubilized” value came to 85%, the “Zn^2+-induced Aβ precipitate resolubilized” value was 50% and the “pH 5.5-induced Aβ precipitate resolubilized” value was found to be 10%. In addition, the plasma levels in data set [14] is 20 to 70 µM. In data set [15] (in vivo), the excretion half life is 1 to 3 h. The “time to peak plasma levels” value in [15] (oral ingestion) was not above 30 min. Moreover, the “proportion dissolved in n-decane” value in data set [16] (5.3 grams in 200 milliliter of n-decane) was determined as 2%. In addition, in data set [16] (PBS, pH 7.4, based on two assumptions), the “concentration in PBS after partition from n-decane” value amounted to 0.8 µM. In addition, in data set [17] (in vivo), the “removal of a bolus dose from the brain” value was “almost completely removed from the brain within three hours”. Further, the safety result in data set [17] (many mammalian species, including rat and mouse) was “appears to be safe”. In addition, the blood levels in data set [17] (within one hour of ingestion, rats and mice) was 1 to 10 µM. Besides, the partitioning coefficient in data set [18] is listed as 1/1750. In data set [19], the neurological side effect entry is listed as “subacute myclo-optic neuritis”. Besides, the plasma levels in data set [20] was 10 to 30 µM.
With `[Mg]` [magnesium], the “resolubilization of Aβ in tissue depleted of metals by EGTA” value in [21] is “led to resolubilization of the precipitated Aβ”.

These data come from patent US20020082273A1, “Agents for use in the treatment of alzheimer's disease” (priority 1998, published 2002).
